Data: patent publication US7405235B2, “Transcription factor modulating compounds and methods of use thereof” (Paratek Pharmaceuticals, Inc., priority 2001, dated 2008)

Target: MarA (Escherichia coli, UniProt P0ACH5)
Test: MarA-activated selective marker (ccdB) cell survival assay, Example 2
Assay type: cell-based
Design: key: * indicates good inhibition of MarA; ** indicates very good inhibition of MarA
Details: inhibition of MarA: cell survival under conditions of MarA expression (ccdB under MarA-activated promoter)
Text: In the absence of Mar A, the expression of the selective marker would be silent. For example, in the case of regulation of the cytotoxic gene ccdB, the gene would be silent and the cells would survive. Synthesis of MarA from an inducible plasmid in a suitable host would result in the activation of the MarA responsive activatable promoter and expression of the selective marker. In the case of ccdB, the gene would be expressed and result in cell death. Compounds that inhibit MarA would be identified as those that permit cell survival under conditions of MarA expression.
In the absence of MarA, the expression of the selective marker is silent and cells survive. Synthesis of MarA from an inducible plasmid in a bacterial or yeast cell leads to the activation of the inaA promoter, expression of ccdB, and subsequently results in cell death. Compounds that inhibit MarA are those that permit cell survival under conditions of MarA expression. In Table 4, * indicates good inhibition of MarA and ** indicates very good inhibition of MarA.

Chain of MarA (P0ACH5 whole entry, looked up): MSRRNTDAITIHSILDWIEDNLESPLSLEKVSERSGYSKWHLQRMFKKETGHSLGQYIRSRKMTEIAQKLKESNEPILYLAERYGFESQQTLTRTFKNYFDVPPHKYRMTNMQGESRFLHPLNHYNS

Structure (SMILES) | MarA inhibition class
CCOC(=O)C(C(N)=O)C1(O)OC(c2ccc(C)cc2)=CC1=O (centres unmarked) [BC, 2-(2-Hydroxy-3-oxo-5-p-tolyl-2,3-dihydro-furan-2-yl)-malonamic acid ethylester] | *
O=C1C(=C2NC(c3ccccn3)C3C(=O)N(c4ccccc4)C(=O)C23)C(=O)c2ccccc21 (centres unmarked) [BB, 4-(1,3-dioxo-1,3-dihydro-2H-inden-2-yliden)-2-phenyl-6-(2-pyridinyl)tetrahydro pyrrolo[3,4-c]pyrrole-1,3(2H,3aH)-dione] | *
